How the values were obtained:
[1] = system: HT-29 cells; assay: Annexin-V/propidium iodide apoptosis and necrosis detection; type: cell-based, human; details: HT-29, 1 µM, 24 h
Protocol: To evaluate the impact of new compounds on apoptosis induction, an annexin-V/propidium iodide staining assay was conducted on HT-29 cells, with doxorubicin serving as the positive control (Figure 4). The tested compounds 5 and 6, at a concentration of 1 µM, increased the number of cells in the apoptosis phase, although to a lesser extent than doxorubicin.
The assessment of cell death—apoptosis was performed after 24 h of incubation of HT-29 cells with a concentration of 1 µM of compounds 5 and 6 and doxorubicin. Fluorescein-conjugated annexin V in PBS with Mg^2+ and Ca^2+ ions (Thermo Fisher Scientific, Waltham, MA, USA) was then used. To ensure that all cells (both live and dead) were counted, 10 µM Hoechst (Sigma-Aldrich, Darmstadt, Germany) was added to stain cell nuclei. The culture was then incubated for 20 min at 37 °C. Apoptosis analysis was performed under a fluorescence microscope (EVOS FL, Thermo Fisher Scientific, Waltham, MA, USA), using 10× magnification, in triplicate for each compound. The open-source ImageJ platform with the Fiji plugin [57] was used to analyze the number of all cells, as well as those in the apoptotic and necrotic phases.
The fluorescence signal was interpreted as follows: green fluorescence indicated apoptotic cells (annexin V staining), red fluorescence corresponded to necrotic cells, and blue fluorescence (Hoechst staining) marked all cell nuclei.

[2] = system: interleukin-6; assay: IL-6 ELISA in HT-29 supernatant; type: cell-based, human; details: HT-29, 1 µM
Description: (§1) The different effects of the anticancer compound on IL-6 and IL-1β can be explained by the different regulatory mechanisms of these cytokines and the distinct signaling pathways targeted by the therapy. The reduction in IL-6 levels may be due to the direct action of the compound on pathways promoting this cytokine or its ability to inhibit inflammatory processes specific to IL-6. In contrast, the increase in IL-1β levels might result from the inflammatory response to cellular stress or apoptosis induced by the therapy, leading to activation of the immune system and increased production of IL-1β.
(§2) Cytokine levels (IL-1β and IL-6) in the supernatant were measured for HT-29 and EPG cells treated with compounds 5 and 6, according to the instructions provided by the manufacturer of the ELISA kits were purchased from Abcam (Cambridge, UK). The absorbance was measured using a Multiskan GO microplate reader (Thermo Fisher Scientific, Waltham, MA, USA) at wavelengths specific to each kit, as recommended by the manufacturer.

[3] = system: interleukin-1β; assay: IL-1β ELISA in HT-29 supernatant; type: cell-based, human; details: HT-29, 1 µM
Description: as §1, §2

[4] = system: p53; assay: p53 Human ELISA on HT-29 cell lysates; type: cell-based; details: HT-29, 1 µM, 24 h
Protocol: (§3) To check the effect of compound 6 on the level of p-53 and caspase-3 protein, another test was performed on HT-29 cells, taking doxorubicin as the reference drug.
(§4) To assess the level of caspase-3 and p53 protein, HT-29 cell lysates were used after 24 h of incubation with compounds 5 and 6. The supernatant was collected in the prepared and labeled tubes, the cells from the wells were scraped, and the wells were washed with cold PBS, which was also collected. The tubes were then centrifuged, the supernatant was removed, and the cell pellet was lysed in a cell extraction vessel for 30 min on ice, with […] every 10 min. The lysate was transferred to centrifuge tubes and centrifuged at 13,000 rpm for 10 min at 4 °C. The supernatant was transferred to clean tubes in a microcentrifuge.
(§5) The following kits were used: Human Caspase-3 (active) ELISA Kit (KHO1091) and p53 Human ELISA Kit (BMS256), used following the manufacturer’s instructions. ELISA kits were purchased from Thermo Fisher Scientific (Waltham, MA, USA). The absorbance was measured using a Multiskan GO microplate reader (Thermo Fisher Scientific, Waltham, MA, USA) at wavelengths specific to each kit, as recommended by the manufacturer.

[5] = system: Caspase-3; assay: Human Caspase-3 (active) ELISA on HT-29 cell lysates; type: cell-based; details: HT-29, 1 µM, 24 h
Protocol: as §3, §4, §5

SMILES	Increase in apoptotic cells compared to untreated cells [1] [fold]	Number of necrotic cells [1]	IL-6 Conc. ± SD [2] [pg/mL]	IL-1β Conc. ± SD [3] [pg/mL]	p53 Conc. ± SD [4] [U/mL]	Caspase-3 Conc. ± SD [5] [ng/mL]
Cc1cc(C)c(C(=O)NCc2nn(CN3CCN(c4cccc(Cl)c4)CC3)c(=S)n2-c2ccccc2)c(S)n1 [Compound 5, 4,6-dimethyl-N-[(4-phenyl-5-thioxo-2-{[4-(3-chlorophenyl)piperazinyl]methyl}-4,5-dihydro-1H-1,2,4-triazol-3-yl)methyl]-2-sulfanylpyridine-3-carboxamide]	> 3.5	significant rise				
Cc1ccc(N2CCN(Cn3nc(CNC(=O)c4c(C)cc(C)nc4S)n(-c4ccccc4)c3=S)CC2)cc1 [Compound 6]	~5		7.80 ± 0.30	0.51 ± 0.11	3.50 ± 0.07	0.48 ± 0.07
